For test [1], the system named is C48/80-induced hind paw edema. The test can be described thus: Local allergic reaction (hind paw edema). The conditions noted are these: 50 mg/kg b.w., i.p.; C48/80 20 µL of 30 µg/mL into right hind paw; listed as PSB-172656. Type of test: in vivo, mouse. The protocol:
PSB-172656 was further investigated in a mouse model of skin inflammation,[54] determining its effects on C48/80-induced hind paw edema. […] These findings indicate a strong anti-inflammatory effect of the MRGPRX2/B2 antagonist in this mouse model. Mice were given the antagonist PSB-172656 intraperitoneally at a dose of 50 mg/kg b.w. or vehicle (2% DMSO). The volume of the paws (both right (test) and left (control)) was measured using a plethysmometer (7140, UgoBasile, Italy). After 30 min, 20 µL of C48/80 (30 µg/mL) were injected into the right paw and 20 µL of 0.9% NaCl into the left paw. After 15 min, paw thickness was measured again. Mice were then killed by dislocation of cervical vertebrae. The mouse model has been described previously.[54],[69]

In the next test the target is T1, MRGPRX2 (Homo sapiens, UniProt Q96LB1).
T1 sequence (Q96LB1 1-330): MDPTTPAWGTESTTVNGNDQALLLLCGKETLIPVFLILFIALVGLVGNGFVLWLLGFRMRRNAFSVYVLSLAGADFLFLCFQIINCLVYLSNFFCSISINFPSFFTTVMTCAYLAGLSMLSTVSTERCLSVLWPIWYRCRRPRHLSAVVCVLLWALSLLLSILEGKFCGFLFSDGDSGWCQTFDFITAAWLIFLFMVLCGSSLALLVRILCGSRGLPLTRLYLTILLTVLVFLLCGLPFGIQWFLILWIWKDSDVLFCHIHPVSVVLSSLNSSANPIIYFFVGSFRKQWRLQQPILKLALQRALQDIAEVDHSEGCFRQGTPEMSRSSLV
The test is described as follows: Degranulation (β-hexosaminidase release), RBL-MRGPRX2 cells. Type of test: cell-based. The protocol: Having a competitive MRGPRX2 antagonist with subnanomolar potency in hand, we next studied its effects on MCs. Activation of MRGPRX2, which is highly expressed in skin MCs, results in degranulation and histamine release.[19] We therefore investigated whether PSB-172656 inhibits MRGPRX2-mediated MC activation utilizing the rat MC line RBL-2H3 recombinantly expressing the human MRGPRX2 (designated RBL-MRGPRX2). These cells were treated with two different concentrations of PSB-172656 (100 nM and 300 nM), and then exposed to different MRGPRX2 agonists, namely C48/80 (0.3 µg/mL), SP (0.3 µM), and PAMP-12 (0.1 µM), respectively. Degranulation of the cells was assayed by β-hexosaminidase release measurements.
Fig. 5 PSB-172656 blocks MRGPRX2-induced mast cell degranulation without affecting IgE-mediated responses. a RBL-MRGPRX2 cells were incubated with control (vehicle) or preincubated with PSB-172656 (100 or 300 nM), followed by stimulation with C48/80 (0.3 µg/mL), substance P (SP; 0.3 µM), or PAMP-12 (0.1 µM), and β-hexosaminidase release was measured. RBL-MRGPRX2 cells were sensitized with monoclonal anti-dinitrophenyl antibody (DNP-specific IgE), and degranulation induced by 2,4-dinitrophenylated bovine serum albumin (DNP-BSA, 10 and 30 ng/mL) was measured without or after preincubation with PSB-172656 (0.1 and 0.3 µM). […] Data are expressed as means ± SEM of 3 biological replicates. Statistical significance was determined by two-way ANOVA (Tukey’s multiple comparisons)
Rat basophilic leukemia (RBL-2H3) cells that stably expressed the human MGPRGX2 (RBL-MRGPRX2) were grown in Dulbecco’s modified Eagle’s medium (DMEM) supplemented with 10% FBS, L-glutamine (2 mM), penicillin (100 IU/mL), and streptomycin (100 µg/mL).[42]
Degranulation as determined by β-hexosaminidase release was performed as described previously.[66],[67] Briefly, RBL-MRGPRX2 cells (5 × 10^4 cells/well) were seeded into 96-well cell culture plates. After 16 h, cells were treated with PSB-172656 or solvent for 5 min in HEPES buffer containing 0.1% bovine serum albumin (BSA), and then activated with MRGPRX2 agonist (C48/80, SP, PAMP-12, or LL-37) for 30 min at 37 °C. For measurement of total β-hexosaminidase content, unstimulated cells were lyzed by Triton X-100 (0.1%). Aliquots (20 µL) of supernatant were incubated with 20 µL of 1 mM 4-nitrophenyl-N-acetyl-β-D-glucosaminide (PNAG) for 1 h at 37°C. Finally, the reaction was stopped by adding 250 µL of 0.1 M Na2CO3/0.1 M NaHCO3 buffer, and absorbance was determined with a Versamax microplate spectrophotometer (Molecular Devices, San José, CA) at a wavelength of 405 nm. The degranulation was quantitated as a percentage of β-hexosaminidase release by dividing the β-hexosaminidase in the sample by the total enzyme content. To test the antigen response, RBL-MRGPRX2 (5 × 10^4 cells/well) cells were sensitized with DNP-specific mouse IgE (SPE-7; 1 µg/mL). After 16 h, cells were preincubated in the absence or presence of respective concentrations of PSB-172656 for 5 min, followed by the stimulation of antigen (DNP-BSA, 10 and 30 ng/mL), and the degranulation was measured as described above. For degranulation in LAD2 cells, 1 × 10^4 cells/well were seeded into 96-well cell culture plates, incubated with or without PSB-172656 for 5 min, then with the MRGPRX2 agonist SP for 30 min, and degranulation was measured similarly.

“Also recorded” adds a separate entry of the source.

Here are results for one compound from paper PMC12010006, “Subnanomolar MAS-related G protein-coupled receptor-X2/B2 antagonists with efficacy in human mast cells and disease models” (Signal Transduction and Targeted Therapy, 2025).

Take `CCc1c(C(C)C)[nH]c2nc3cc(F)c(F)cc3n2c1=O` [Compound 24, 3-ethyl-7,8-difluoro-2-isopropylbenzo[4,5]imidazo [1,2-a] pyrimidin-4(1H)-one]: in test [1], the “effect on C48/80-induced paw swelling” value was “significant decrease in paw swelling; also recorded: prevents or reduces edema formation”. Also, the “effect on MC degranulation in response to C48/80” value at MRGPRX2 (100 nM and 300 nM, C48/80 0.3 µg/mL) was “completely abolished”. Further, the “effect on MC degranulation in response to PAMP-12” value on MRGPRX2 (100 nM and 300 nM, PAMP-12 0.1 µM) was “substantially inhibited”. On MRGPRX2 (100 nM and 300 nM, SP 0.3 µM), the “effect on MC degranulation in response to SP” value is reported as “completely abolished”. Besides, the IC50 came to 3.79 nM against MRGPRX2 (versus C48/80 (0.3 µg/mL)), 8.12 nM on MRGPRX2 (versus LL-37 (3 µM)), 11.7 nM on MRGPRX2 (versus PAMP-12 (0.1 µM)) and 15.5 nM at MRGPRX2 (versus SP (0.3 µM)).
